Paper PMC12299890 (Pharmaceuticals, 2025)

Test: Serum concentration and pharmacokinetics of SCI after oral gavage in Wistar rats
Type: in vivo, Wistar rat
Experimental: All procedures were performed according to the Local Ethical Committee of Experiments on Animals guidelines in Olsztyn, Poland. The experiment was conducted in the same way as described by Antonowski et al.. Briefly, the experiment was performed on male Wistar rats (n = 6). Rats were maintained in ventilated rooms under a standard day photoperiod (12:12 h light–dark) as well as with lights on from 700 to 1900 h at 21 °C. All rats had free access to food and water. At 42 days of age, rats were randomized into experimental groups (Table 1 and Table 4).
Before the administration of cyclitol (10 mg/kg), the rats were fasting for 12 h (Table 1). […] Access to water was unlimited during the experiments. The study group (n = 6) was divided into two subgroups (n = 3 rats per subgroup). This practice allows for the use of only 6 rats for the entire experiment in accordance with the 3 Rs principle. Rats received the compound at a dose of 10 mg/kg body weight. Rats were weighed before starting the compound administration. Cyclitol was administered to the rats from the study group using a stainless-steel gastric tube with a ball tip (manufacturer—Agnthos, curved gastric tube, 16G, 3 mm tip, 75 mm). Cyclitol was dissolved in distilled water to a maximum volume of 1 mL. The prepared solution was administered to the animal.
Blood samples were collected into Eppendorf tubes and were centrifuged at 2500× g for 10 min at 8 °C the following day. Blood was harvested from the tail at a specific time. […] Serum was stored at −80 °C for subsequent analyses.
The analysis is described in detail by Antonowski and co-workers. Briefly, the first step was to remove the protein, then concentrate the sample in a speed vacuum evaporator to dryness. Next, samples were analyzed using the high-resolution gas chromatography method. We used a gas chromatograph GC2010Plus (Shimadzu, Tokyo, Japan) with a capillary column ZEBRON ZB-1 (15 m length, 0.25 mm diameter, and 0.1 μm film thickness, Phenomenex, Torrance, CA, USA). Helium was used as a carrier gas (at a flow rate of 1.18 mL min^−1). […] Finally, scyllo-inositol was quantified by using a standard.
The PK parameters were calculated using PK Solver. PKSolver is an add-in program for pharmacokinetic and pharmacodynamic data analysis […]. […] The area under the drug concentration–time curve from time zero to the time of the last quantifiable concentration (AUClast) was calculated using the trapezoidal rule. The volume over which the drug was distributed (Vd) and clearance (CL) were conducted by PK Solver. […] Nevertheless, we estimated K by log-linear regression analysis on data points on the terminal log-linear phase. Noncompartmental analysis is generally the preferred methodology to use in that it requires fewer assumptions than model-based approaches. We presented the results for individual rats, subgroups of rats, and for all subjects studied. The content of scyllo-inositol was calculated from the standard curves of appropriate components. To determine the terminal phase, […] was sufficient.
An analysis of all parameters was carried out with GraphPad Prism software (Version 10 Graph Pad Software Inc., La Jolla, CA, USA). Data are expressed as means ± SEM or individual data. Briefly, AUClast was calculated using the trapezoidal method. The T0.5 of oral administration was calculated as 0.693/K.

[1] = Mean of rats 1–3 ± SEM, serum, oral 10 mg/kg

With `O[C@H]1[C@H](O)[C@@H](O)[C@H](O)[C@@H](O)[C@@H]1O` [SCI, scyllo-inositol] the CL [1] was 0.112 ± 0.008 (95%CI: 0.145–0.079) L/h, the Vd [1] was 4.182 ± 2.287 (95%CI: 14.02–(−5.656)) L and the CL (Mean of rats 4–6 ± SEM, serum, oral 10 mg/kg) was 0.216 ± 0.055 (95%CI: 0.451–(−0.02)) L/h. It also gave a CL (Rat No 1, serum, oral 10 mg/kg) of 0.1 L/h, a Vd (Rat No 1, serum, oral 10 mg/kg) of 0.039 L and a CL (Rat No 2, serum, oral 10 mg/kg) of 0.11 L/h. It also gave a Vd (Rat No 2, serum, oral 10 mg/kg) of 7.93 L, a CL (Rat No 3, serum, oral 10 mg/kg) of 0.126 L/h and a Vd (Rat No 3, serum, oral 10 mg/kg) of 4.578 L. The CL (Rat No 4, serum, oral 10 mg/kg) was 0.325 L/h, the Vd (Rat No 4, serum, oral 10 mg/kg) was 0.358 L and the CL (Rat No 5, serum, oral 10 mg/kg) was 0.16 L/h. The Vd (Rat No 5, serum, oral 10 mg/kg) was 0.9967 L, the CL (Rat No 6, serum, oral 10 mg/kg) was 0.162 L/h and the Vd (Rat No 6, serum, oral 10 mg/kg) was 0.566 L. The “Concentration of SCI in serum” value (Rat No. 1, time 0 h, oral 10 mg/kg) was “BLQ”, the “Concentration of SCI in serum” value (Rat No. 1, time 0.25 h, oral 10 mg/kg) was “BLQ” and the “Concentration of SCI in serum” value (Rat No. 1, time 12 h, oral 10 mg/kg) was “BLQ”. For the same compound, the “Concentration of SCI in serum” value (Rat No. 1, time 24 h, oral 10 mg/kg) was “BLQ”, the “Concentration of SCI in serum” value (Rat No. 2, time 0 h, oral 10 mg/kg) was “BLQ” and the “Concentration of SCI in serum” value (Rat No. 2, time 0.25 h, oral 10 mg/kg) was “BLQ”. The “Concentration of SCI in serum” value (Rat No. 2, time 12 h, oral 10 mg/kg) was “BLQ”, the “Concentration of SCI in serum” value (Rat No. 2, time 24 h, oral 10 mg/kg) was “BLQ” and the “Concentration of SCI in serum” value (Rat No. 3, time 0 h, oral 10 mg/kg) was “BLQ”. For the same compound, the “Concentration of SCI in serum” value (Rat No. 3, time 0.25 h, oral 10 mg/kg) was “BLQ”, the “Concentration of SCI in serum” value (Rat No. 3, time 12 h, oral 10 mg/kg) was “BLQ” and the “Concentration of SCI in serum” value (Rat No. 3, time 24 h, oral 10 mg/kg) was “BLQ”. The “Concentration of SCI in serum” value (Rat No. 4, time 36 h, oral 10 mg/kg) was “BLQ”, the “Concentration of SCI in serum” value (Rat No. 4, time 48 h, oral 10 mg/kg) was “BLQ” and the “Concentration of SCI in serum” value (Rat No. 5, time 36 h, oral 10 mg/kg) was “BLQ”. For the same compound, the “Concentration of SCI in serum” value (Rat No. 5, time 48 h, oral 10 mg/kg) was “BLQ”, the “Concentration of SCI in serum” value (Rat No. 6, time 36 h, oral 10 mg/kg) was “BLQ” and the “Concentration of SCI in serum” value (Rat No. 6, time 48 h, oral 10 mg/kg) was “BLQ”. For the same compound, the concentration at 0 min (male, Wistar, rat, serum, oral, 10 mg/kg, Mean concentration of SCI in serum, at the point of administration (0 min), rats 1–3) was 0 ng/mL, the concentration at 0.5 h (male, Wistar, rat, serum, po, 10 mg/kg, Concentration of SCI in serum, Rat No. 1, oral 10 mg/kg) was 1000 ng/mL and the concentration at 1 h (male, Wistar, rat, serum, po, 10 mg/kg, Concentration of SCI in serum, Rat No. 1, time 1 h, oral 10 mg/kg) was 1600 ng/mL. It also gave a concentration at 1.5 h (male, Wistar, rat, serum, po, 10 mg/kg, Concentration of SCI in serum, Rat No. 1, time 1.5 h, oral 10 mg/kg) of 7200 ng/mL, a concentration at 0.5 h (male, Wistar, rat, serum, po, 10 mg/kg, Concentration of SCI in serum, Rat No. 2, oral 10 mg/kg) of 4600 ng/mL and a concentration at 1 h (male, Wistar, rat, serum, po, 10 mg/kg, Concentration of SCI in serum, Rat No. 2, time 1 h, oral 10 mg/kg) of 5600 ng/mL. It also gave a concentration at 1.5 h (male, Wistar, rat, serum, po, 10 mg/kg, Concentration of SCI in serum, Rat No. 2, time 1.5 h, oral 10 mg/kg) of 6200 ng/mL, a concentration at 0.5 h (male, Wistar, rat, serum, po, 10 mg/kg, Concentration of SCI in serum, Rat No. 3, oral 10 mg/kg) of 5600 ng/mL and a concentration at 1 h (male, Wistar, rat, serum, po, 10 mg/kg, Concentration of SCI in serum, Rat No. 3, time 1 h, oral 10 mg/kg) of 6800 ng/mL. It also gave a concentration at 1.5 h (male, Wistar, rat, serum, po, 10 mg/kg, Concentration of SCI in serum, Rat No. 3, time 1.5 h, oral 10 mg/kg) of 4400 ng/mL, a concentration at 2 h (male, Wistar, rat, serum, po, 10 mg/kg, Concentration of SCI in serum, Rat No. 4, time 2 h, oral 10 mg/kg) of 3200 ng/mL and a concentration at 4 h (male, Wistar, rat, serum, po, 10 mg/kg, Concentration of SCI in serum, Rat No. 4, time 4 h, oral 10 mg/kg) of 600 ng/mL. The concentration at 8 h (male, Wistar, rat, serum, po, 10 mg/kg, Concentration of SCI in serum, Rat No. 4, time 8 h, oral 10 mg/kg) was 400 ng/mL, the concentration at 2 h (male, Wistar, rat, serum, po, 10 mg/kg, Concentration of SCI in serum, Rat No. 5, time 2 h, oral 10 mg/kg) was 3800 ng/mL and the concentration at 4 h (male, Wistar, rat, serum, po, 10 mg/kg, Concentration of SCI in serum, Rat No. 5, time 4 h, oral 10 mg/kg) was 6100 ng/mL. The concentration at 8 h (male, Wistar, rat, serum, po, 10 mg/kg, Concentration of SCI in serum, Rat No. 5, time 8 h, oral 10 mg/kg) was 200 ng/mL, the concentration at 2 h (male, Wistar, rat, serum, po, 10 mg/kg, Concentration of SCI in serum, Rat No. 6, time 2 h, oral 10 mg/kg) was 5400 ng/mL and the concentration at 4 h (male, Wistar, rat, serum, po, 10 mg/kg, Concentration of SCI in serum, Rat No. 6, time 4 h, oral 10 mg/kg) was 3600 ng/mL. For the same compound, the concentration at 8 h (male, Wistar, rat, serum, po, 10 mg/kg, Concentration of SCI in serum, Rat No. 6, time 8 h, oral 10 mg/kg) was 400 ng/mL, the concentration at 30 min (male, Wistar, rat, serum, po, 10 mg/kg, Mean concentration of SCI in serum, 30 min after oral 10 mg/kg, mean of rats 1–3) was 3730 ng/mL and the concentration at 1 h (male, Wistar, rat, serum, po, 10 mg/kg, Mean concentration of SCI in serum, 1 h after oral 10 mg/kg, mean of rats 1–3) was 4670 ng/mL. It also gave a concentration at 1.5 h (male, Wistar, rat, serum, po, 10 mg/kg, Mean concentration of SCI in serum, 1.5 h after oral 10 mg/kg, mean of rats 1–3) of 5930 ng/mL, a concentration at 2 h (male, Wistar, rat, serum, po, 10 mg/kg, Mean concentration of SCI in serum, 2 h after oral 10 mg/kg, mean of rats 4–6) of 4130 ng/mL and a concentration at 4 h (male, Wistar, rat, serum, po, 10 mg/kg, Mean concentration of SCI in serum, 4 h after oral 10 mg/kg, mean of rats 4–6) of 3430 ng/mL. For the same compound, the concentration at 8 h (male, Wistar, rat, serum, po, 10 mg/kg, Mean concentration of SCI in serum, 8 h after oral 10 mg/kg, mean of rats 4–6) was 330 ng/mL and the concentration at 12 h (male, Wistar, rat, serum, po, 10 mg/kg, Mean concentration of SCI in serum, 12 h after oral 10 mg/kg, rats 1–3) was 0 ng/mL.
